One may read the inhibition as the drop in the measured response relative to a control, in per cent.

The text below walks through data of EP4578856A1, “HETEROCYCLIC COMPOUND” (Ubience Inc., priority 2022, dated 2024).

For assay [1], the target named is T1, FAK protein (Homo sapiens, UniProt Q05397). Nature of the assay: FAK kinase inhibitory activity, mobility shift assay (MSA, Carna Biosciences). Type of assay: biochemical. More on the design: GST (N); purchased Carna Biosciences, Inc; host or cells: baculovirus expression system. Conditions: inhibition rate at 30 nM; reaction time 5 hours. The procedure:
The FAK kinase inhibitory activity was measured using a mobility shift assay (MSA) provided by Carna Biosciences, Inc.
The test compound was dissolved in DMSO to prepare a 3 µM solution. The solution was further diluted 25 times with an assay buffer (20 mmol/L HEPES, 0.01%Triton (registered trademark) X-100, 1 mmol/L DTT, pH 7.5) to obtain a test compound solution.
Incomplete human FAK kinase was expressed by fusing 376 to 1052 amino acids of Accession No. NP_722560.1 with GST at the N-terminus using the baculovirus expression system. The GST-FAK was purified by glutathione sepharose chromatography. A 4-fold concentration substrate (Blk/Lyntide, 1000 nmol/L)/ATP (25 µmol/L)/metal solution (Mg, 5 mmol/L) was prepared with kit buffer (20 mmol/L HEPES, 0.01% Triton (registered trademark) X-100, 5 mmol/L DTT, pH 7.5). A 2-fold concentration kinase solution was prepared with assay buffer.
In the same manner as described in Test Example 1, tests and evaluation of inhibitory activity and data analysis were performed. The reaction time was set to 5 hours. […]
Target sequence in this assay (Q05397 376-1052): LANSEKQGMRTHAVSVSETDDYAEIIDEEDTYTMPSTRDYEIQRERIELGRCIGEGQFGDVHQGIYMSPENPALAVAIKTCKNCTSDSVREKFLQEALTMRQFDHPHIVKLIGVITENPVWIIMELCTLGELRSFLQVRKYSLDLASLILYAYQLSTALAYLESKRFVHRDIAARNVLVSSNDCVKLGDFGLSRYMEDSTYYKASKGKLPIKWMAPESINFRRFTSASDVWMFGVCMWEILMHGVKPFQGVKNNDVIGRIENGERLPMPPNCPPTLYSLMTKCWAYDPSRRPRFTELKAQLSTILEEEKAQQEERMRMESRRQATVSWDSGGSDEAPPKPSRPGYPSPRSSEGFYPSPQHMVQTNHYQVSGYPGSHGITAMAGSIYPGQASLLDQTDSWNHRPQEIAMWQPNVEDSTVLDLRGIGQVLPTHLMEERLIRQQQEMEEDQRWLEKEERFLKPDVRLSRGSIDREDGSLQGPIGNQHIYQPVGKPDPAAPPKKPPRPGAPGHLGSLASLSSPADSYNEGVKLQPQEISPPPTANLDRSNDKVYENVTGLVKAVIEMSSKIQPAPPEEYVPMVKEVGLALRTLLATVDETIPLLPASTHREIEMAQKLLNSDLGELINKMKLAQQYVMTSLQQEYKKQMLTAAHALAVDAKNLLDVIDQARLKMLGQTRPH

Assay [2] concerns the target T1, FAK protein. Nature of the assay: Degradation inducing activity of FAK protein in PA-1 cells, Western blotting (Simple Western JESS). More on the design: endogenous in cells; host or cells: PA-1 (ATCC CRL-1572). The conditions noted are these: at 10 µM, 24 hours. Type of assay: cell-based. The procedure: In vitro degradation inducing activity of FAK protein of compounds of Examples was evaluated by Western Blotting (WB).
By a test compound, 10 mM DMSO solution was prepared, which was used as a 10 µM test compound solution. Further, the solution was diluted 10-fold with DMSO to prepare a 1 mM solution, which was used as a 1 µM test compound solution.
PA-1 cells (ATCC: CRL-1572, Lot: 70055709) were cultured in Eagle's Minimum Essential Medium supplemented with 10% FBS and 1% Penicillin/Streptomycin. The PA-1 cells seeded in a 24 well plate at 200,000 cells/well/1 mL were cultured for 24 hours, and then 1 µL of DMSO or a test compound solution was added thereto and treatment was performed for 24 hours. Cells were harvested and lysed for 20 minutes on ice using RIPA lysis buffer (Sigma, Cat#R0278) supplemented with protease inhibitor cocktail (Sigma, Cat#P8340; Roche, Cat#P11873580001), and phosphatase inhibitor cocktail (Sigma, Cat#P5726, P0044). The lysate was sonicated (15 seconds, amplitude 30%, 1 cycle) and then centrifuged at 12500 rpm for 15 minutes at 4°C. The protein concentration was determined by BCA assay kit (Thermo Fisher Scientific, Cat#23225).
The western blotting was performed using Simple Western JESS (protein simple). A cell lysis sample (protein amount; about 2 µg) was loaded on a plate of Simple Western JESS, and the expression level of […] was detected using a 12-230 kDa Wes Separation Module (Protein simple, Cat#SM-WO04), an Anti-Rabbit Detection Module for Wes (Protein simple, Cat#DM-001), and a Total Protein Detection Module for Wes (Protein simple, Cat#DM-TP01). As the primary antibody, a material obtained by diluting FAK Rabbit mAb (Cell Signaling Technology, Cat#3285) at 1:100 was used, and as the secondary antibody, a material obtained by diluting HRP-labeled anti-rabbit IgG antibody (Cell Signaling Technology, Cat#7074S) at 1:250 was used. The expression level of the target protein was standardized using the total protein amount loaded as a reference. The standardized expression level data of the control (DMSO) was taken as 100%, and the degradation rate (%) was calculated from the average standardized expression level data of the test compounds (compounds of Examples 109 to 128). All analysis steps, such as data detection and analysis, are fully automated.
Target sequence in this assay (Q05397 whole entry): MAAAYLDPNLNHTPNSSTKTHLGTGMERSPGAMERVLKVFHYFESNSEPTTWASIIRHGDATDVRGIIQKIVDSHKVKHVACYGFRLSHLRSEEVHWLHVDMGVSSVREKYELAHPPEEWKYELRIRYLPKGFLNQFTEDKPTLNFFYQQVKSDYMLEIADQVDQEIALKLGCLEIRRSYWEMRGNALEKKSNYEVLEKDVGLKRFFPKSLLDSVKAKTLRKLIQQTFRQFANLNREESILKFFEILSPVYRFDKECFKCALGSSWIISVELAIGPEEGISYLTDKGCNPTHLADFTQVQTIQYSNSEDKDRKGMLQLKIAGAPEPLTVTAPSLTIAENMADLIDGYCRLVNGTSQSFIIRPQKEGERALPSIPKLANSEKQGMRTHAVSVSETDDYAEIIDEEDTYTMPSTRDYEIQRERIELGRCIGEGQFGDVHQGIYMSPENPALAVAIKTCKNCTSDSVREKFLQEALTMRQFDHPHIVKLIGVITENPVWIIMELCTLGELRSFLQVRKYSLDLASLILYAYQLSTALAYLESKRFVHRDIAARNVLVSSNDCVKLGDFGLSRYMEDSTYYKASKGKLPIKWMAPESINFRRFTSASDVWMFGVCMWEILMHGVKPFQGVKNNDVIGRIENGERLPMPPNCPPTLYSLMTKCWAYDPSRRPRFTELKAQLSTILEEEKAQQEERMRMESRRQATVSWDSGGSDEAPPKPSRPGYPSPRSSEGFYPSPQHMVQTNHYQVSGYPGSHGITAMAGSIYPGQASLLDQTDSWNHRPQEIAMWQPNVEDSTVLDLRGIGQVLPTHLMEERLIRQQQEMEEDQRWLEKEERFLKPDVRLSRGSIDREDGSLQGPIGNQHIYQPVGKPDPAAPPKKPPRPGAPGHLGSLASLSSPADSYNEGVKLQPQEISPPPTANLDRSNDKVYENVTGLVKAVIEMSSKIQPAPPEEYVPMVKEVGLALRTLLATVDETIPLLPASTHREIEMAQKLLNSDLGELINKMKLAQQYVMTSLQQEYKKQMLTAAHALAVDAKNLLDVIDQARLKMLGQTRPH
For orientation: Immunoblotting shows a protein as a band on a membrane.

As to `COC[C@H]1CN[C@H](C)CN1CC(=O)N1CC(C)(C)c2nc(CN3CCN(CCOCC(=O)Nc4ccc(Nc5ncc(C(F)(F)F)c(NCc6cccc(S(C)(=O)=O)c6)n5)cc4)CC3)c(Cc3ccc(F)cc3)cc21` [Example 115, 2-(2-(4-((6-(4-Fluorobenzyl)-1-(2-((2R,5R)-2-(methoxymethyl)-5-methylpiperazin-1-yl)acetyl)-3,3-dimethyl-2,3-dihydro-1H-pyrrolo[3,2-b]pyridin-5-yl)methyl)piperazin-1-yl)ethoxy)-N-(4-((4-((3-(methylsulfonyl)benzyl)amino)-5-(trifluoromethyl)pyrimidin-2-yl)amino)phenyl)acetamide], at FAK protein [1], the inhibition at 0.03 µM is no less than 75%. In addition, the “FAK protein degradation rate” value on FAK protein [2] is given as no less than 75%.
